Results published in BindingDB's records for doi:10.7270/Q2CZ35ND (Burnham Center For Chemical Genomics, 2011).

Target: DNA dC->dU-editing enzyme APOBEC-3A (Homo sapiens, UniProt P31941)
Assay: APOBEC3A DNA deaminase inhibitors, dose response, biochemical (AID 504722)
Details: 25 °C

DNA dC->dU-editing enzyme APOBEC-3A, sequence (P31941 whole entry): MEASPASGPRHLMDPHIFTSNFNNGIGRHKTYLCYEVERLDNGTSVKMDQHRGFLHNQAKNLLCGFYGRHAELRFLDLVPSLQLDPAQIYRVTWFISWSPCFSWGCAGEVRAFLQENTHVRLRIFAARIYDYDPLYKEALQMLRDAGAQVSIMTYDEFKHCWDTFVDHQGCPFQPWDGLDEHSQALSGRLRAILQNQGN

Row | Compound | IC50 [µM]
1 | COc1ccc(-n2c(O)cc(Sc3nnc(-c4ccccc4)[nH]3)c2O)cc1 [1-(4-methoxyphenyl)-3-[(5-phenyl-1H-1,2,4-triazol-3-yl)thio]pyrrolidine-2,5-dione] | > 100
2 | OCC12C=CC(O1)c1c2c(O)n(-c2ccccc2-c2ccccc2)c1O (stereo not drawn) [7-(hydroxymethyl)-2-(2-phenylphenyl)-4,7a-dihydro-3aH-octahydro-1H-4,7-epoxyisoindole-1,3-dione] | > 100
3 | CCOc1ccc(-n2c(O)cc(Sc3nnc(-c4ccccc4)[nH]3)c2O)cc1 [MLS000765380] | > 100
